Assay results reported in patent publication US20070032520A1, “Indol-5-yl sulfonamide derivatives, their preparation and their use 5-ht-6 as modulators” (Laboratorios Del Dr. Esteve S.A, priority 2003, published 2007).

Structure (SMILES) | melting point [°C]
CN(C)CCn1ccc2cc(NS(=O)(=O)c3cccc4ccccc34)ccc21 [Example 3, N-[1-(2-dimethylaminoethyl)-1H-indole-5-yl]-naphthalene-1-sulfonamide] | 179 to 181
CN(C)CCn1ccc2cc(NS(=O)(=O)c3c(Cl)nc4sccn34)ccc21 [Example 11, N-[1-(2-dimethylaminoethyl)-1H-indole-5-yl]-6-chloroimidazo[2,1-b]thiazole-5-sulfonamide] | 50 to 52
CN(C)CCn1ccc2cc(NS(=O)(=O)c3cccc4c(Cl)cccc34)ccc21 [Example 4, N-[1-(2-dimethylaminoethyl)-1H-indole-5-yl]-5-chloronaphthalene-1-sulfonamide] | 172 to 174
CN(C)CCn1ccc2cc(NS(=O)(=O)c3cc(Cl)c(Cl)s3)ccc21 [Example 20, N-[1-(2-dimethylaminoethyl)-1H-indole-5-yl]-4,5-dichlorothiophene-2-sulfonamide] | 120 to 123
CN(C)CCn1ccc2cc(NS(=O)(=O)c3cccc(Br)c3)ccc21 [Example 13, N-[1-(2-dimethylaminoethyl)-1H-indole-5-yl]-3-bromobenzenesulfonamide] | 114 to 116
CN(C)CCn1ccc2cc(NS(=O)(=O)c3cc(Cl)cc(Cl)c3)ccc21 [Example 12, N-[1-(2-dimethylaminoethyl)-1H-indole-5-yl]-3,5-dichlorobenzenesulfonamide] | 124 to 126
